From patent US7009052B2, “Sulfonamide derivatives” (Warner Lambert Company LLC, priority 2003, dated 2006)
pIC50: −log10 of the molar value.

Target: T1, androgen receptor (Homo sapiens, UniProt P10275)
T1 sequence (P10275 1-920 Q868H): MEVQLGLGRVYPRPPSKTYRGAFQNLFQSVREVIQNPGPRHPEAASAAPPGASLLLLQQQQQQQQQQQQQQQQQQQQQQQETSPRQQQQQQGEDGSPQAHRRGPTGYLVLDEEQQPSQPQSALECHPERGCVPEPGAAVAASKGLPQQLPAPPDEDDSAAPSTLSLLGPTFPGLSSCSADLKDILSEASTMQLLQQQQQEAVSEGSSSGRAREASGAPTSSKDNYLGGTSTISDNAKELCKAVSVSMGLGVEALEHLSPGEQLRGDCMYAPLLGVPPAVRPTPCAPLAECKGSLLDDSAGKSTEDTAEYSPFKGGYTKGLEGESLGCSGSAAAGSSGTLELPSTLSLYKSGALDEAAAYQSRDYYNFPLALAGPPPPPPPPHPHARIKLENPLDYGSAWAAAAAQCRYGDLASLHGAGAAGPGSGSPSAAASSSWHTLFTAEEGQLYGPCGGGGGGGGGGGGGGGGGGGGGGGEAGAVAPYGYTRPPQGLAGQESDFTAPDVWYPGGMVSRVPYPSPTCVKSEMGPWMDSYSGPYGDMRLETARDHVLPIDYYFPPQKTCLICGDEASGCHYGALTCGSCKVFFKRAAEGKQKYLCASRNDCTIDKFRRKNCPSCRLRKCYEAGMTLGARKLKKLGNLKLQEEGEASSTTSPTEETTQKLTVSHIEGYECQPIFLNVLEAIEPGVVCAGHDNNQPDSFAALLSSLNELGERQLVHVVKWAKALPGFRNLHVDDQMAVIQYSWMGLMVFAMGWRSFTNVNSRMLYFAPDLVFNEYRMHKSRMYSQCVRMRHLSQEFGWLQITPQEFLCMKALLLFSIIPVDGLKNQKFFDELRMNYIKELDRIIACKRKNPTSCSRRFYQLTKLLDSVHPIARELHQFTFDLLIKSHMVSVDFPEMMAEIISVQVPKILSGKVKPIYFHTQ
Experiment: AR Antagonist Cell Assay (MMTV-luciferase reporter, DHT-induced)
Format: cell-based
Details: MDA-MB453-MMTV clone 54-19 cells, 100 pM DHT, 17 hr
In short: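 Stably transfected MDA-MB453 cells carrying an ARE-containing MMTV promoter–firefly luciferase reporter, pretreated 30 min with compound at 10 uM or 1 uM in 1% charcoal-treated serum medium. Then stimulated with 100 pM DHT for 17 hr at 37° C. and luminescence read; expressed as % inhibition of DHT-induced signal.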

Row | Compound | pIC50
1 | CC(CNS(=O)(=O)c1ccc2c(c1)c(C(F)(F)F)cc(=O)n2C)c1ccccc1 (stereo not drawn) [Example 56, 1-Methyl-2-oxo-4-trifluoromethyl-1,2-dihydroquinoline-6-sulfonicacid (2-phenylpropyl)amide] | 5.56
2 | Cc1ccc(CNS(=O)(=O)c2ccc3[nH]c(=O)cc(C(F)(F)F)c3c2)c(F)c1F [Example 145, 2-Oxo-4-trifluoromethyl-1,2-dihydroquinoline-6-sulfonic acid2,3-difluoro-4-methylbenzylamide] | < 5.00
3 | O=c1cc(C(F)(F)F)c2cc(S(=O)(=O)NC3CCCCCC3)ccc2[nH]1 [Example 126, 2-Oxo-4-trifluoromethyl-1,2-dihydroquinoline-6-sulfonic acidcycloheptylamide] | 5.53
4 | O=c1cc(C(F)(F)F)c2cc(S(=O)(=O)N[C@H]3CCCC[C@H]3OCc3ccccc3)ccc2[nH]1 [Example 160, 2-Oxo-4-trifluoromethyl-1,2-dihydroquinoline-6-sulfonic acid(2-benzyloxycyclohexyl)amide] | < 5.00
5 | N#Cc1cccc(NS(=O)(=O)c2ccc3[nH]c(=O)cc(C(F)(F)F)c3c2)c1 [Example 87, 2-Oxo-4-trifluoromethyl-1,2-dihydroquinoline-6-sulfonic acid(3-cyanophenyl)amide] | 5.45
6 | CCCCCN(CCO)S(=O)(=O)c1ccc2c(c1)c(C(F)(F)F)cc(=O)n2C [Example 7, 1-Methyl-2-oxo-4-trifluoromethyl-1,2-dihydroquinoline-6-sulfonicacid (2-hydroxyethyl)-pentylamide] | < 5.00
7 | Cn1c(=O)cc(C(F)(F)F)c2cc(S(=O)(=O)NCCSC(C)(C)C)ccc21 [Example 61, 1-Methyl-2-oxo-4-trifluoromethyl-1,2-dihydroquinoline-6-sulfonicacid (2-tert-butylsulfanylethyl)amide] | 5.82
8 | Cc1cc(NS(=O)(=O)c2ccc3[nH]c(=O)cc(C(F)(F)F)c3c2)n(C)n1 [Example 85, 2-Oxo-4-trifluoromethyl-1,2-dihydroquinoline-6-sulfonic acid(2,5-dimethyl-2H-pyrazol-3-yl)amide] | < 5.00
9 | Cn1c(=O)cc(C(F)(F)F)c2cc(S(=O)(=O)Nc3ccc(CC#N)cc3)ccc21 [Example 21, 1-Methyl-2-oxo-4-trifluoromethyl-1,2-dihydroquinoline-6-sulfonicacid (4-cyanomethylphenyl)amide] | 6.00
10 | COc1ccc(N(Cc2ccccc2)S(=O)(=O)c2ccc3c(c2)c(C(F)(F)F)cc(=O)n3C)cc1 [Example 46, 1-Methyl-2-oxo-4-trifluoromethyl-1,2-dihydroquinoline-6-sulfonicacid benzyl(4-methoxy-phenyl)amide] | < 5.00
11 | CN(CCc1ccccc1)S(=O)(=O)c1ccc2[nH]c(=O)cc(C(F)(F)F)c2c1 [Example 78, 2-Oxo-4-trifluoromethyl-1,2-dihydroquinoline-6-sulfonic acidmethylphenethylamide] | 6.82
12 | O=c1cc(C(F)(F)F)c2cc(S(=O)(=O)NCc3ccccc3OC(F)F)ccc2[nH]1 [Example 151, 2-Oxo-4-trifluoromethyl-1,2-dihydroquinoline-6-sulfonic acid2-difluoromethoxybenzylamide] | 6.14
13 | Cc1ccccc1CNS(=O)(=O)c1ccc2c(c1)c(C(F)(F)F)cc(=O)n2C [Example 52, 1-Methyl-2-oxo-4-trifluoromethyl-1,2-dihydroquinoline-6-sulfonicacid 2-methylbenzylamide] | < 5.00
14 | Cn1c(=O)cc(C(F)(F)F)c2cc(S(=O)(=O)Nc3cccc(OC(F)(F)F)c3)ccc21 [Example 41, 1-Methyl-2-oxo-4-trifluoromethyl-1,2-dihydroquinoline-6-sulfonicacid (3-trifluoromethoxy-phenyl)amide] | 5.41
15 | O=c1cc(C(F)(F)F)c2cc(S(=O)(=O)NCc3ccccc3C(F)(F)F)ccc2[nH]1 [Example 153, 2-Oxo-4-trifluoromethyl-1,2-dihydroquinoline-6-sulfonic acid2-trifluoromethylbenzylamide] | 6.12

Results, then the compound that gave them:

Row | pIC50 | Compound
16 | < 5.00 | Cc1cc(=O)oc2cc(NS(=O)(=O)c3ccc4[nH]c(=O)cc(C(F)(F)F)c4c3)ccc12 [Example 111, 2-Oxo-4-trifluoromethyl-1,2-dihydroquinoline-6-sulfonic acid(4-methyl-2-oxo-2H-chromen-7-yl)amide]
17 | 6.46 | CC(CNS(=O)(=O)c1ccc2[nH]c(=O)cc(C(F)(F)F)c2c1)c1ccccc1 (stereo not drawn) [Example 131, 2-Oxo-4-trifluoromethyl-1,2-dihydroquinoline-6-sulfonic acid(2-phenylpropyl)amide]
18 | < 5.00 | CN(c1ccccc1)S(=O)(=O)c1ccc2c(c1)c(C(F)(F)F)cc(=O)n2C [Example 12, 1-Methyl-2-oxo-4-trifluoromethyl-1,2-dihydroquinoline-6-sulfonicacid methylphenylamide]
19 | 5.58 | O=c1cc(C(F)(F)F)c2cc(S(=O)(=O)NCCc3ccccc3)ccc2[nH]1 [Example 128, 2-Oxo-4-trifluoromethyl-1,2-dihydroquinoline-6-sulfonic acidphenethylamide]
20 | 5.94 | Cc1ccc(NS(=O)(=O)c2ccc3[nH]c(=O)cc(C(F)(F)F)c3c2)cc1 [Example 83, 2-Oxo-4-trifluoromethyl-1,2-dihydroquinoline-6-sulfonic acidp-tolylamide]
21 | 6.12 | Cc1cccc(NS(=O)(=O)c2ccc3c(c2)c(C(F)(F)F)cc(=O)n3C)c1 [Example 13, 1-Methyl-2-oxo-4-trifluoromethyl-1,2-dihydroquinoline-6-sulfonicacid m-tolylamide]
22 | 5.80 | CC(C)OCCCNS(=O)(=O)c1ccc2[nH]c(=O)cc(C(F)(F)F)c2c1 [Example 127, 2-Oxo-4-trifluoromethyl-1,2-dihydroquinoline-6-sulfonic acid(3-isopropoxypropyl)amide]
23 | < 5.00 | Cc1ccc(F)cc1NS(=O)(=O)c1ccc2c(c1)c(C(F)(F)F)cc(=O)n2C [Example 30, 1-Methyl-2-oxo-4-trifluoromethyl-1,2-dihydroquinoline-6-sulfonicacid (5-fluoro-2-methylphenyl)amide]
24 | < 5.00 | Cn1c(=O)cc(C(F)(F)F)c2cc(S(=O)(=O)NCCCCc3ccccc3)ccc21 [Example 57, 1-Methyl-2-oxo-4-trifluoromethyl-1,2-dihydroquinoline-6-sulfonicacid (4-phenylbutyl)amide]
25 | < 5.00 | Cn1c(=O)cc(C(F)(F)F)c2cc(S(=O)(=O)Nc3cccc(Cc4ccccc4)c3)ccc21 [Example 43, 1-Methyl-2-oxo-4-trifluoromethyl-1,2-dihydroquinoline-6-sulfonicacid (3-benzylphenyl)amide]
26 | 5.43 | CSc1cccc(NS(=O)(=O)c2ccc3c(c2)c(C(F)(F)F)cc(=O)n3C)c1 [Example 29, 1-Methyl-2-oxo-4-trifluoromethyl-1,2-dihydroquinoline-6-sulfonicacid (3-methylsulfanylphenyl)amide]
27 | 6.26 | CCCN(CC1CC1)S(=O)(=O)c1ccc2[nH]c(=O)cc(C(F)(F)F)c2c1 [Example 73, 2-Oxo-4-trifluoromethyl-1,2-dihydroquinoline-6-sulfonic acidcyclopropylmethyl-propylamide]
28 | < 5.00 | O=c1cc(C(F)(F)F)c2cc(S(=O)(=O)Nc3ccc4c(c3)OCO4)ccc2[nH]1 [Example 98, 2-Oxo-4-trifluoromethyl-1,2-dihydroquinoline-6-sulfonic acidbenzo[1,3]dioxol-5-ylamide]
29 | 6.09 | O=c1cc(C(F)(F)F)c2cc(S(=O)(=O)NC3CCCC3)ccc2[nH]1 [Example 120, 2-Oxo-4-trifluoromethyl-1,2-dihydroquinoline-6-sulfonic acidcyclopentylamide]
30 | 6.70 | CC(C)c1ccc(NS(=O)(=O)c2ccc3[nH]c(=O)cc(C(F)(F)F)c3c2)cc1 [Example 97, 2-Oxo-4-trifluoromethyl-1,2-dihydroquinoline-6-sulfonic acid(4-isopropylphenyl)amide]
31 | 5.46 | O=c1cc(C(F)(F)F)c2cc(S(=O)(=O)Nc3ccc4ncccc4c3)ccc2[nH]1 [Example 93, 2-Oxo-4-trifluoromethyl-1,2-dihydroquinoline-6-sulfonic acidquinolin-6-ylamide]
32 | 5.06 | CC(C)c1ccc(NS(=O)(=O)c2ccc3c(c2)c(C(F)(F)F)cc(=O)n3C)cc1 [Example 25, 1-Methyl-2-oxo-4-trifluoromethyl-1,2-dihydroquinoline-6-sulfonicacid (4-isopropylphenyl)amide]
33 | < 5.00 | O=c1cc(C(F)(F)F)c2cc(S(=O)(=O)NCc3cccc(Cl)c3)ccc2[nH]1 [Example 138, 2-Oxo-4-trifluoromethyl-1,2-dihydroquinoline-6-sulfonic acid3-chlorobenzylamide]
